pEC50: −log10 of the molar value.
What was measured:
Leishmania major [1] = test: Antiparasitic activity against Leishmania major promastigotes; type: functional, organism-based; conditions: Leishmania major; read-out: EC50
Plasmodium falciparum = test: Antiparasitic activity against Plasmodium falciparum D6; type: functional, organism-based; conditions: Plasmodium falciparum, D6; read-out: EC50
Leishmania major [2] = test: Antiparasitic activity against Leishmania major amastigotes; type: functional, organism-based; conditions: Leishmania major; read-out: EC50
Trypanosoma brucei [3] = test: Antiparasitic activity against Trypanosoma brucei after 48 hrs by cytometry; type: functional, organism-based
Trypanosoma cruzi [4] = test: Antiparasitic activity against Trypanosoma cruzi at 10 uM; type: functional
[5] = (§1) Cytotoxicity against human HepG2 cells by MTT assay; type: cell-based; conditions: HepG2 cells, read-out: TC50 (the source's name)
[6] = Metabolic stability in rat Hepatocytes; type: ADME, cell-based, Hepatocyte
[7] = Plasma protein binding in human; type: ADME, cell-free
[8] = Metabolic stability in human microsomes; type: ADME, Microsome
[9] = Aqueous solubility of compound; type: physicochemical; conditions: buffer
HepG2 = test: as §1; type: cell-based; conditions: hepg2
Trypanosoma cruzi [10] = test: Antiparasitic activity against Trypanosoma cruzi; type: functional, organism-based
[11] = Selectivity ratio, ratio of EC50 for Plasmodium falciparum W2 to EC50 for Plasmodium falciparum D6; type: functional
[12] = Selectivity ratio, ratio of EC50 for Plasmodium falciparum C235 to EC50 for Plasmodium falciparum D6; type: functional
Trypanosoma brucei [13] = test: Antiparasitic activity against Trypanosoma brucei at 5 uM after 48 hrs by cytometry; type: functional
[14] = tested on: Trypanosoma brucei brucei; test: Antiparasitic activity against bloodstream Trypanosoma brucei bruei CA427 after 48 hrs by cytometry; type: functional, organism-based; conditions: CA427, 48 h

SMILES | pEC50 (Leishmania major [1]) | pEC50 (Plasmodium falciparum) | pEC50 (Leishmania major [2]) | pEC50 (Trypanosoma brucei [3]) | inhibition at 10 µM (Trypanosoma cruzi [4]) [%] | CC50 [5] [µM] | Stability [6] | PPB [7] [%] | Stability [8] | solubility [9] [µM] | Activity (HepG2) | pEC50 (Trypanosoma cruzi [10]) | Ratio EC50 [11] | Ratio EC50 [12] | inhibition at 5 µM (Trypanosoma brucei [13]) [%] | pEC50 [14]
Fc1cccc(COc2ccc(Nc3ncnc4sc(-c5ccccc5)cc34)cc2Cl)c1 | < 4.70 | < 4.70 | < 4.82 | 5.77 | 42 | 10 |  |  |  |  |  |  |  |  |  | 
Fc1cccc(COc2ccc(Nc3ncnc4ccc(-c5cccc(N6CCOCC6)c5)cc34)cc2Cl)c1 |  |  | 5.10 |  |  |  | Stable | > 99 | Stable | < 1 | Non-toxic |  |  |  |  | 
Cc1cc(-c2cc3ncnc(Nc4ccc(OCc5cccc(F)c5)c(Cl)c4)c3s2)cnc1N1CCOCC1 | < 5.52 | 6.64 | < 5.52 | 7.08 |  |  | Stable | > 99 | Stable | < 1 | Non-toxic | 5.48 | < 3 | < 3 |  | 
Fc1cccc(COc2ccc(Nc3ncnc4ccc(-c5ccc(CN6CCOCC6)cc5)cc34)cc2Cl)c1 | 5.56 | 7.20 | 5.23 | 6.00 |  | 12.9 |  |  |  |  |  | 6.22 | < 3 | < 3 |  | 
Fc1cccc(COc2ccc(Nc3ncnc4ccc(-c5ccc(N6CCOCC6)cc5)cc34)cc2Cl)c1 | 5.36 | 6.57 | < 4.82 | 5.72 | 10.1 | 9.6 |  |  |  |  |  |  |  |  |  | 
Fc1cccc(COc2ccc(Nc3ncnc4sc(-c5ccc(CN6CCOCC6)cc5)cc34)cc2Cl)c1 | < 4.70 | 7.05 | 5.38 |  |  |  |  |  |  |  | Non-toxic | 5.77 | < 3 | < 3 | 60 | 
CS(=O)(=O)CCNCc1ccc(-c2ccc3ncnc(Nc4ccc(OCc5cccc(F)c5)c(Cl)c4)c3c2)o1 [LAPATINIB] |  |  |  |  |  | > 35 |  |  |  |  |  |  |  |  |  | 
Fc1cccc(COc2ccc(Nc3ncnc4cc(C#C[C@@H]5CCCN5)sc34)cc2Cl)c1 |  |  |  |  |  |  |  |  |  |  |  |  |  |  |  | 6.59
Fc1cccc(COc2ccc(Nc3ncnc4ccc(-c5ccccc5)cc34)cc2Cl)c1 | 5.39 | 6.10 | < 4.82 | 5.41 |  | 4.9 |  |  |  |  |  | 5.74 |  |  |  | 
Fc1cccc(COc2ccc(Nc3ncnc4cc(-c5ccccc5Oc5ccccc5)sc34)cc2Cl)c1 | < 4.70 | 5.21 | 5.46 |  |  |  |  |  |  |  | Non-toxic | < 4.30 |  |  | 10 | 

From ChEMBL document CHEMBL3734677, “EVALUATION OF AROMATIC 6-SUBSTITUTED THIENOPYRIMIDINES AS SCAFFOLDS AGAINST PARASITES THAT CAUSE TRYPANOSOMIASIS, LEISHMANIASIS, AND MALARIA” (Medchemcomm, 2015)
